Drawing on ChEMBL document CHEMBL1148555, “Macrocyclic peptidomimetic inhibitors of beta-secretase (BACE): first X-ray structure of a macrocyclic peptidomimetic-BACE complex” (Bioorg Med Chem Lett, 2006), this text covers IC50 for 2 compounds.

Where only a bound is given, the exact number is not on record here.

The target of one assay is Beta-secretase 1 (Homo sapiens, UniProt P56817). The assay is described as follows: Inhibition of recombinant human BACE1 in FRET assay.
Assay [1] is described as follows: Inhibition of Abeta peptide production in HEK293 cells overexpressing APP751swe. It is filed as functional, cell-based. Particulars: Homo sapiens.

Beta-secretase 1, sequence (P56817 whole entry): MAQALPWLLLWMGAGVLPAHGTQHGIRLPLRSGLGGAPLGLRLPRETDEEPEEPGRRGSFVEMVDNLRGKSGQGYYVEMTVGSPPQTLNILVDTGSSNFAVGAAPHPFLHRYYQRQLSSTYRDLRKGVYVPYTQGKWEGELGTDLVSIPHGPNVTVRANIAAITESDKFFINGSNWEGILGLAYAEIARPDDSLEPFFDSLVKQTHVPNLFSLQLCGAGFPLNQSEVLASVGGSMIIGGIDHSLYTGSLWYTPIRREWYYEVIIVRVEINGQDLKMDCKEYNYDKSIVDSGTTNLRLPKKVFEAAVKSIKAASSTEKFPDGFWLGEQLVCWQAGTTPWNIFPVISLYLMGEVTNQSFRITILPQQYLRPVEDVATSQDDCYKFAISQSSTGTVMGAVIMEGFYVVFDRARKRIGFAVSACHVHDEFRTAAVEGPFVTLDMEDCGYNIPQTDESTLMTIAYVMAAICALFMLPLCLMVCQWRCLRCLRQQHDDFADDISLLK

By IC50 is commonly meant the concentration needed to halve the response being measured. For the compound `CC(C)[C@H](NC(=O)CC[C@H](O)[C@@H]1CCCCCC[C@H](NC(=O)OC(C)(C)C)C(=O)N[C@@H](C)C(=O)N1)C(=O)NCc1ccccc1`, the IC50 is 9.7 µM on Beta-secretase 1 and above 100 µM in assay [1].

Compound `CC(C)[C@H](NC(=O)OC(C)(C)C)C(=O)N[C@@H](C)C(=O)N[C@@H](Cc1ccccc1)[C@@H](O)C[C@@H](C)C(=O)N[C@H](C(=O)NCc1ccncc1)C(C)C` had an IC50 in assay [1] of 2.83 µM.
